Measurements taken from patent US11339170B1, “Spiropyrrolidine derived antiviral agents” (priority 2021, dated 2022).
Read-outs that look alike come from different tables or passages of the source.

Tests used:
SARS-CoV-2 3CL-protease = SARS-CoV-2 3CL-protease (Severe acute respiratory syndrome coronavirus 2 (2019-nCoV) (SARS-CoV-2), UniProt P0DTD1); experiment: SARS-CoV-2 3C-like (3CL) protease fluorescence assay (FRET); format: biochemical
[1] = tested on: 229E human corona virus (hCoV); experiment: 229E live virus assay (CPE, ATPlite readout) in MRC-5 cells; format: cell-based, hCoV-229E; details: Human coronavirus 229E, MRC5, 144 h, read-out: 229E EC50
[2] = recombinant SARS-CoV-2 3CL-protease 10 nM, 30 min preincubation, duplicate, read-out: FRET IC50

Row | SMILES | IC50 (SARS-CoV-2 3CL-protease; read-out: FRET IC50, recombinant SARS-CoV-2 3CL-protease 10 nM, 30 min preincubation, duplicate) [nM] | IC50 (SARS-CoV-2 3CL-protease; [2]) [nM] | EC50 [1] [nM] | IC50 (SARS-CoV-2 3CL-protease) [nM] | EC50 ([1]; MRC-5 cells, MOI 0.05, 6 days at 34° C., ATPlite, duplicate) [nM]
1 | CC(C)C[C@@H](C(=O)N1C[C@]2(C[C@H]1C#N)C(=O)Nc1ccccc12)N(C)C(=O)C(=O)Nc1ccc(F)cc1F [Compound 1] | < 100 |  |  |  | 
2 | CC(C)C[C@@H](C(=O)N1C[C@]2(C[C@H]1C#N)C(=O)Nc1ccccc12)N(C)C(=O)C(=O)Nc1ccc(F)cc1F [Compound 2] |  | < 100 |  |  | 
3 | CC(C)C[C@@H](C(=O)N1C[C@]2(C[C@H]1C#N)C(=O)Nc1ccccc12)N(C)C(=O)C(=O)Nc1ccccc1 [Compound 3] |  |  | < 100 | < 100 | 
4 | CC(C)C[C@@H](C(=O)N1C[C@]2(C[C@H]1C#N)C(=O)Nc1ccccc12)N(C)C(=O)C(=O)Nc1ccc(F)cc1 [Compound 4] |  |  | < 100 | < 100 | 
5 | CC(C)C[C@@H](C(=O)N1C[C@]2(C[C@H]1C#N)C(=O)Nc1ccccc12)N(C)C(=O)C(=O)Nc1ccc(F)c(F)c1 [Compound 5] |  |  | < 100 | 100 to 1000 | 
6 | CC(C)C[C@@H](C(=O)N1C[C@]2(C[C@H]1C#N)C(=O)Nc1ccccc12)N(C)C(=O)C(=O)Nc1cc(F)c(F)c(F)c1 [Compound 6] |  |  | < 100 | 100 to 1000 | 
7 | CC(C)C[C@@H](C(=O)N1C[C@]2(C[C@H]1C#N)C(=O)Nc1ccccc12)N(C)C(=O)C(=O)Nc1ccc2ccccc2c1 [Compound 7] |  |  | < 100 | < 100 | 
8 | CC(C)C[C@@H](C(=O)N1C[C@]2(C[C@H]1C#N)C(=O)Nc1ccccc12)N(C)C(=O)C(=O)Nc1cccc2ccccc12 [Compound 8] |  |  | < 100 | < 100 | 
9 | CC(C)C[C@@H](C(=O)N1C[C@]2(C[C@H]1C#N)C(=O)Nc1ccccc12)N(C)C(=O)C(=O)N(C)c1ccccc1 [Compound 9] |  |  | < 100 | < 100 | 
10 | CC(C)C[C@@H](C(=O)N1C[C@]2(C[C@H]1C#N)C(=O)Nc1ccccc12)N(C)C(=O)C(=O)N(C)c1ccc(F)cc1 [Compound 10] |  |  | < 100 | < 100 | 
11 | CC(C)C[C@@H](C(=O)N1C[C@]2(C[C@H]1C#N)C(=O)Nc1ccccc12)N(C)C(=O)C(=O)Nc1ccc2cccnc2c1 [Compound 11] |  |  | < 100 | < 100 | 
12 | CC(C)C[C@@H](C(=O)N1C[C@]2(C[C@H]1C#N)C(=O)Nc1ccccc12)N(C)C(=O)C(=O)Nc1ccc2cnccc2c1 [Compound 12] |  |  | < 100 | < 100 | 
13 | CC(C)C[C@@H](C(=O)N1C[C@]2(C[C@H]1C#N)C(=O)Nc1ccccc12)N(C)C(=O)C(=O)Nc1ccc2ccccc2n1 [Compound 13] |  |  | < 100 | < 100 | 
14 | CC(C)C[C@@H](C(=O)N1C[C@]2(C[C@H]1C#N)C(=O)Nc1ccccc12)N(C)C(=O)C(=O)Nc1ccc2ncccc2c1 [Compound 14] |  |  | < 100 | < 100 | 
15 | CC(C)C[C@@H](C(=O)N1C[C@]2(C[C@H]1C#N)C(=O)Nc1ccccc12)N(C)C(=O)C(=O)Nc1cnc2ccccc2c1 [Compound 15] |  |  | < 100 | < 100 | 
16 | CC(C)C[C@@H](C(=O)N1C[C@]2(C[C@H]1C#N)C(=O)Nc1ccccc12)N(C)C(=O)C(=O)Nc1nn(C)c2ccccc12 [Compound 16] |  |  | < 100 | < 100 | 
17 | CC(C)C[C@@H](C(=O)N1C[C@]2(C[C@H]1C#N)C(=O)Nc1ccccc12)N(C)C(=O)C(=O)Nc1nc2ccccc2s1 [Compound 17] |  |  | < 100 | < 100 | 
18 | CC(C)C[C@@H](C(=O)N1C[C@]2(C[C@H]1C#N)C(=O)Nc1ccccc12)N(C)C(=O)C(=O)Nc1nc2ccccc2n1C [Compound 18] |  |  | < 100 | < 100 | 
19 | CC(C)C[C@@H](C(=O)N1C[C@]2(C[C@H]1C#N)C(=O)Nc1ccccc12)N(C)C(=O)C(=O)Nc1n[nH]c2ccccc12 [Compound 19] |  | < 100 |  |  | < 100
20 | CN(C(=O)C(=O)Nc1ccc(F)cc1F)[C@@H](CC(C)(C)C)C(=O)N1C[C@]2(C[C@H]1C#N)C(=O)Nc1ccccc12 [Compound 20] |  |  | < 100 | < 100 | 
21 | CN(C(=O)C(=O)Nc1ccc(F)cc1)[C@@H](CC(C)(C)C)C(=O)N1C[C@]2(C[C@H]1C#N)C(=O)Nc1ccccc12 [Compound 21] |  |  | < 100 | < 100 | 
22 | [2H]C([2H])([2H])N(C(=O)C(=O)Nc1ccc(F)cc1)[C@@H](CC(C)(C)C)C(=O)N1C[C@]2(C[C@H]1C#N)C(=O)Nc1ccccc12 [Compound 22] |  |  | < 100 | < 100 | 
23 | [2H]C([2H])([2H])N(C(=O)C(=O)Nc1ccc(F)cc1F)[C@@H](CC(C)(C)C)C(=O)N1C[C@]2(C[C@H]1C#N)C(=O)Nc1ccccc12 [Compound 23] |  |  | < 100 | < 100 | 
24 | [2H]C([2H])([2H])N(C(=O)C(=O)Nc1ccc(F)c(F)c1)[C@@H](CC(C)(C)C)C(=O)N1C[C@]2(C[C@H]1C#N)C(=O)Nc1ccccc12 [Compound 24] |  |  | < 100 | < 100 | 

Row | SMILES | IC50 (SARS-CoV-2 3CL-protease; read-out: FRET IC50, recombinant SARS-CoV-2 3CL-protease 10 nM, 30 min preincubation, duplicate) [nM] | IC50 (SARS-CoV-2 3CL-protease; [2]) [nM] | EC50 [1] [nM] | IC50 (SARS-CoV-2 3CL-protease) [nM] | EC50 ([1]; MRC-5 cells, MOI 0.05, 6 days at 34° C., ATPlite, duplicate) [nM]
25 | [2H]C([2H])([2H])N(C(=O)C(=O)NC1CCC1)[C@@H](CC(C)(C)C)C(=O)N1C[C@]2(C[C@H]1C#N)C(=O)Nc1ccccc12 [Compound 25] |  |  | < 100 | < 100 | 
26 | [2H]C([2H])([2H])N(C(=O)C(=O)NC1CCCCC1)[C@@H](CC(C)(C)C)C(=O)N1C[C@]2(C[C@H]1C#N)C(=O)Nc1ccccc12 [Compound 26] |  |  | < 100 | < 100 | 
27 | [2H]C([2H])([2H])N(C(=O)C(=O)Nc1ccccn1)[C@@H](CC(C)(C)C)C(=O)N1C[C@]2(C[C@H]1C#N)C(=O)Nc1ccccc12 [Compound 27] |  |  | < 100 | 100 to 1000 | 
28 | [2H]C([2H])([2H])N(C(=O)C(=O)N1CCCCC1)[C@@H](CC(C)(C)C)C(=O)N1C[C@]2(C[C@H]1C#N)C(=O)Nc1ccccc12 [Compound 29] |  |  | < 100 | 100 to 1000 | 
29 | [2H]C([2H])([2H])N(C(=O)C(=O)Nc1ccc(F)cc1)[C@@H](Cc1ccccc1)C(=O)N1C[C@]2(C[C@H]1C#N)C(=O)Nc1ccccc12 [Compound 30] |  |  | < 100 | < 100 | 
30 | [2H]C([2H])([2H])N(C(=O)C(=O)NC1CCCC1)[C@@H](CC(C)(C)C)C(=O)N1C[C@]2(C[C@H]1C#N)C(=O)Nc1ccccc12 [Compound 31] |  |  | < 100 | < 100 | 
31 | [2H]C([2H])([2H])N(C(=O)C(=O)Nc1ccccc1)[C@@H](Cc1ccccc1)C(=O)N1C[C@]2(C[C@H]1C#N)C(=O)Nc1ccccc12 [Compound 32] |  |  | < 100 | < 100 | 
32 | [2H]C([2H])([2H])N(C(=O)C(=O)Nc1ccccn1)[C@@H](Cc1ccccc1)C(=O)N1C[C@]2(C[C@H]1C#N)C(=O)Nc1ccccc12 [Compound 33] |  |  | < 100 | < 100 | 
33 | [2H]C([2H])([2H])N(C(=O)C(=O)NC1CC1)[C@@H](Cc1ccccc1)C(=O)N1C[C@]2(C[C@H]1C#N)C(=O)Nc1ccccc12 [Compound 34] |  |  | < 100 | < 100 | 
34 | [2H]C([2H])([2H])N(C(=O)C(=O)Nc1c(C)cccc1C)[C@@H](CC(C)(C)C)C(=O)N1C[C@]2(C[C@H]1C#N)C(=O)Nc1ccccc12 [Compound 35] |  |  | < 100 | < 100 | 
35 | [2H]C([2H])([2H])N(C(=O)C(=O)N(C)c1ccccc1)[C@@H](CC(C)(C)C)C(=O)N1C[C@]2(C[C@H]1C#N)C(=O)Nc1ccccc12 [Compound 36] |  |  | 100 to 1000 | > 1000 | 
36 | [2H]C([2H])([2H])N(C(=O)C(=O)Nc1ccc2ncccc2c1)[C@@H](CC(C)(C)C)C(=O)N1C[C@]2(C[C@H]1C#N)C(=O)Nc1ccccc12 [Compound 37] |  |  | < 100 | < 100 | 
37 | [2H]C([2H])([2H])N(C(=O)C(=O)Nc1ccc(F)c(F)c1)[C@@H](CC1CC1)C(=O)N1C[C@]2(C[C@H]1C#N)C(=O)Nc1ccccc12 [Compound 38] |  |  | < 100 | < 100 | 
38 | [2H]C([2H])([2H])N(C(=O)C(=O)Nc1ccc(F)cc1)[C@@H](CC1CC1)C(=O)N1C[C@]2(C[C@H]1C#N)C(=O)Nc1ccccc12 [Compound 39] |  |  | < 100 | < 100 | 
39 | CC(C)C[C@@H](C(=O)N1C[C@]2(C[C@H]1C#N)C(=O)Nc1ccccc12)N(C)C(=O)C(=O)NC1CC1 [Compound 40] |  |  | < 100 | < 100 | 
40 | CC(C)C[C@@H](C(=O)N1C[C@]2(C[C@H]1C#N)C(=O)Nc1ccccc12)N(C)C(=O)C(=O)c1ccc(F)cc1 [Compound 41] |  |  | < 100 | < 100 | 
41 | CC(C)C[C@@H](C(=O)N1C[C@]2(C[C@H]1C#N)C(=O)Nc1ccccc12)N(C)C(=O)C(=O)N(C)C1CC1 [Compound 42] |  |  | < 100 | < 100 | 
42 | CC(C)C[C@@H](C(=O)N1C[C@]2(C[C@H]1C#N)C(=O)Nc1ccccc12)N(C)C(=O)C(=O)C1CC1 [Compound 43] |  |  | < 100 | < 100 | 
43 | CC(C)C[C@@H](C(=O)N1C[C@]2(C[C@H]1C#N)C(=O)Nc1ccccc12)N(C)C(=O)C(=O)NC(C)(C)C [Compound 44] |  |  | < 100 | < 100 | 
44 | CN(C(=O)C(=O)Nc1ccc(F)c(F)c1)[C@@H](Cc1ccccc1)C(=O)N1C[C@]2(C[C@H]1C#N)C(=O)Nc1ccccc12 [Compound 45] |  |  | < 100 | < 100 | 
45 | [2H]C([2H])([2H])N(C(=O)C(=O)Nc1ccc(F)c(F)c1)[C@@H](Cc1ccc(F)cc1)C(=O)N1C[C@]2(C[C@H]1C#N)C(=O)Nc1ccccc12 [Compound 46] |  |  | < 100 | < 100 | 
46 | [2H]C([2H])([2H])N(C(=O)C(=O)Nc1ccc(F)c(F)c1)[C@@H](CCCC)C(=O)N1C[C@]2(C[C@H]1C#N)C(=O)Nc1ccccc12 [Compound 47] |  |  | < 100 | < 100 | 
47 | [2H]C([2H])([2H])N(C(=O)C(=O)C(C)(C)C)[C@@H](CCCC)C(=O)N1C[C@]2(C[C@H]1C#N)C(=O)Nc1ccccc12 [Compound 48] |  |  | < 100 | < 100 | 
48 | CC(C)(C)C[C@H](NC(=O)C(=O)NC(C)(C)C)C(=O)N1C[C@]2(C[C@H]1C#N)C(=O)Nc1ccccc12 [Compound 69] |  |  |  | < 100 | 
